Consider 10 compounds from patent US20120165315A1, “[…] PRODRUG SALTS” (priority 2010, published 2012).

Bounds are passed on as bounds.

Series [1] can be described thus: Hygroscopicity of the free base and its salts. In kind it is physicochemical. As to conditions: solid form. The text has this: (§1) The advantageous properties of salts according to the invention can be seen from the table below:
(§2) The salts were all obtained in good yields.

Series [2] can be described thus: Thermal profile / melt event of the free base and its salts. In kind it is physicochemical. Particulars: solid form.
From the text: as §1, §2

The conditions of series [3]: Norbury et al. 1983; cited from earlier work.
For series [4] the following is noted: Balikova et al. 2001; cited from earlier work.
For series [5] the following is noted: rat model; Lu et al. 2005, Xie et al. 2005; cited from earlier work.
The mark [6] stands for this setting: listed as maleic acid addition salt.

Turning to `CCC1(c2cccc(OC(=O)Nc3ccc(C(=O)O)cc3)c2)CCCCN(C)C1.O=C(O)/C=C\C(=O)O` (stereo not drawn) [Meptazinol PABA Carbamate Maleic Acid Addition Salt], the results for the Hygroscopic result in series [1] and in series [1] (setting [6]) were “no” and “not be hygroscopic”, respectively. Besides, the results for the “Good thermal profile with clean melt event” value (“Good thermal profile” for short) in series [2] and in series [2] (setting [6]) were “yes” and “good thermal profiles with clean melt events”, respectively.
For `CCC1(c2cccc(OC(=O)Nc3ccc(C(=O)O)cc3)c2)CCCCN(C)C1.O=C(O)CC(=O)O` (stereo not drawn) [Meptazinol PABA Carbamate Malonic Acid Addition Salt], in series [1], the Hygroscopic entry is “not be hygroscopic and no”. In addition, the figures for the “Good thermal profile” value in series [2] and in series [2] (listed as malonic acid addition salt) were “yes” and “good thermal profiles with clean melt events”, respectively.
Regarding `CCC1(c2cccc(OC(=O)Nc3ccc(C(=O)O)cc3)c2)CCCCN(C)C1.CS(=O)(=O)O` (stereo not drawn) [Meptazinol PABA Carbamate Methanesulphonic Acid Addition Salt], the Hygroscopic result in series [1] was “not be hygroscopic and no”. In addition, the “Good thermal profile” value in series [2] is “yes”; in series [2] (listed as methanesulphonic acid addition salt), “good thermal profiles with clean melt events”.
In the case of `CCC1(c2cccc(OC(=O)Nc3ccc(C(=O)O)cc3)c2)CCCCN(C)C1.O=P(O)(O)O` (stereo not drawn) [Meptazinol PABA Carbamate Phosphoric Acid Addition Salt], the Hygroscopic entry in series [1] is given as “no”; in series [1] (listed as phosphoric acid addition salt), “not be hygroscopic”. Also, in series [2], the “Good thermal profile” value was “no”.
Turning to `CCC1(c2cccc(OC(=O)Nc3ccc(C(=O)O)cc3)c2)CCCCN(C)C1.O=S(=O)(O)O` (stereo not drawn) [Meptazinol PABA Carbamate Sulphuric Acid Addition Salt], the Hygroscopic result in series [1] is “not be hygroscopic and no”. Also, the “Good thermal profile” value in series [2] is on record as “yes”; in series [2] (listed as sulphuric acid addition salt), “good thermal profiles with clean melt events”.
For `CCC1(c2cccc(O)c2)CCCCN(C)C1` (stereo not drawn) [Meptazinol], the oral bioavailability in series [3] is on record as under 10%.
Consider `COc1ccc2c3c1O[C@H]1[C@@H](O)CC[C@H]4[C@@H](C2)N(C)CC[C@@]341` [dihydrocodeine], for which, in series [4], the “share of an oral dose converted to dihydromorphine” value was “less than 2%”.
For the compound `CCC1(c2cccc(OC(=O)Nc3ccc(C(=O)O)cc3)c2)CCCCN(C)C1` (stereo not drawn) [meptazinol p-amino-benzoylcarbamate, Meptazinol para-amino benzoic acid carbamate], the Hygroscopic entry is “yes” in series [1] and “very hygroscopic” in series [1] (listed as meptazinol p-amino-benzoic acid carbamate). In addition, in series [2], the “Good thermal profile” value was “no”.
For the compound `CCC1(c2cccc(OC(=O)Nc3ccc(C(=O)O)cc3)c2)CCCCN(C)C1.Cl` (stereo not drawn) [meptazinol p-amino-benzoylcarbamate•HCl], the Hygroscopic entry in series [1] was “yes”. The “Good thermal profile” value in series [2] was “no”.
With “(Z)-3-[2-(propionyloxy)phenyl]-2-propenoic ester”, the “bioavailability over meptazinol itself” value in series [5] is “significant increase”.
